# Data from ChEMBL document CHEMBL1833947, “Synthesis and biological investigation of potential atypical antipsychotics with a tropane core. Part 1” (Eur J Med Chem, 2011).
# Calls of active or inactive are those of the source. The calls are words filed in the database; no cut-off is given here.
# Columns and labels:
# [1] = target: T1, 5-hydroxytryptamine receptor 1A (Rattus norvegicus, UniProt P19327); assay: Displacement of [3H]8OH-DPAT from 5HT1A in rat brain cerebral cortex after 15 mins by scintillation counting; type: tissue-based
# T1 sequence (P19327 whole entry): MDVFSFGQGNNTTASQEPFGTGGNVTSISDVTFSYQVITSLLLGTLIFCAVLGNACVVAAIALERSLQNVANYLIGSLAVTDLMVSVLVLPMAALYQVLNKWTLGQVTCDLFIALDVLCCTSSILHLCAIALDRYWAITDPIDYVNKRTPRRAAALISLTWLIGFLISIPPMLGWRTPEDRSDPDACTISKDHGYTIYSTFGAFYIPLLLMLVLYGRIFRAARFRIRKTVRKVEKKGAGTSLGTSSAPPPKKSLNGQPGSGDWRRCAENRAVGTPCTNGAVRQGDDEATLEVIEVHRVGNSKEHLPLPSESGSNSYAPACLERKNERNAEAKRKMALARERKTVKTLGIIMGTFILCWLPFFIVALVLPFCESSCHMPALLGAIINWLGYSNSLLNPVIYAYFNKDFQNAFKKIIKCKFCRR
# [2] = target: 5-hydroxytryptamine receptor 2A (Rattus norvegicus, UniProt P14842); assay: Displacement of [3H]ketanserin from 5HT2A in rat brain cerebral cortex after 20 mins by scintillation counting; type: tissue-based
# 5-hydroxytryptamine receptor 2A, sequence (P14842 whole entry): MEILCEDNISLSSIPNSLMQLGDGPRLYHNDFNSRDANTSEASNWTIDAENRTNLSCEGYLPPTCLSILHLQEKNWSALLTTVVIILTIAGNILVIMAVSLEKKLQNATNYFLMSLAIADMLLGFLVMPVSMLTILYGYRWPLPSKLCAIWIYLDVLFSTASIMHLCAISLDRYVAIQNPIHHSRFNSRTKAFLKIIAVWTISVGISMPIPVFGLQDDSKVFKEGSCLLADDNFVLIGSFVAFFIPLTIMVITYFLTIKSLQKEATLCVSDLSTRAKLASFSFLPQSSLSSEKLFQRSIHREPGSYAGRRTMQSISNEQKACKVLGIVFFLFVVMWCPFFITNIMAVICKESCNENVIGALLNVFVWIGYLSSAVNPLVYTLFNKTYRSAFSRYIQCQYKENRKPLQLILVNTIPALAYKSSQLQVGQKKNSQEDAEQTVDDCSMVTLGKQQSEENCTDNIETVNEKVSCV
# D(2) dopamine receptor = D(2) dopamine receptor (Rattus norvegicus, UniProt P61169); assay: Displacement of [3H]spiperone from dopamine D2 receptor in rat striatum tissue after 20 mins by scintillation counting; type: tissue-based
# D(2) dopamine receptor, sequence (P61169 whole entry): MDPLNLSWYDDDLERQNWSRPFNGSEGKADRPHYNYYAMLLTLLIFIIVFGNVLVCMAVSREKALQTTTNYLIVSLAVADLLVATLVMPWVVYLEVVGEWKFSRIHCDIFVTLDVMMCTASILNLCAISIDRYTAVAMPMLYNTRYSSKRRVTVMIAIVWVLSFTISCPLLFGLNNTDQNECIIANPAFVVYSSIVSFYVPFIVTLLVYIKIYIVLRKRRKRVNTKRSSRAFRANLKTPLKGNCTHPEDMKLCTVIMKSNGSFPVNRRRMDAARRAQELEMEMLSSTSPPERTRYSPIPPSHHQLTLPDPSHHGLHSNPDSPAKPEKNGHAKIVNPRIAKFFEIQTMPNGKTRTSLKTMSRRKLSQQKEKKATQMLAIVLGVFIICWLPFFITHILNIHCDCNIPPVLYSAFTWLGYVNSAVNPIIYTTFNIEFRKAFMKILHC
# Mus musculus [3] = assay: Antipsychotic activity in mouse assessed as reversal of apomorphine-induced mesh climbing response at 10 mg/kg, ip administered 10 mins prior to apomorphine challenge measured after 40 mins; type: functional, organism-based; parameters: dose 10 mg/kg
# Mus musculus [4] = assay: Antipsychotic activity in mouse assessed as reversal of DOI-induced head twitches at 5 mg/kg, ip administered 30 mins before DOI challenge; type: functional; conditions: route intraperitoneal
# Mus musculus [5] = assay: Antipsychotic activity in mouse assessed as reversal of DOI-induced head twitches at 10 mg/kg, ip administered 30 mins before DOI challenge; type: functional; conditions: route intraperitoneal
# Mus musculus [6] = assay: Antipsychotic activity in mouse assessed as reversal of DOI-induced head twitches at 20 mg/kg, ip administered 30 mins before DOI challenge; type: functional; conditions: route intraperitoneal
# Mus musculus [7] = assay: Antipsychotic activity in mouse assessed as reversal of apomorphine-induced mesh climbing response at 50 mg/kg, ip administered 20 mins prior to apomorphine challenge measured after 120 mins
# Rattus norvegicus [8] = assay: Antipsychotic activity in 8-OH-DPAT-stimulated rat assessed as lower lip retractions at 10 mg/kg, iv administered 45 mins before 8-OH-DPAT challenge measured after 15 to 45 mins (reference value: 2.9 retractions); type: functional
# Rattus norvegicus [9] = assay: Antipsychotic activity in 8-OH-DPAT-stimulated rat assessed as lower lip retractions at 20 mg/kg, iv administered 45 mins before 8-OH-DPAT challenge measured after 15 to 45 mins (reference value: 2.9 retractions); type: functional
# Mus musculus [10] = assay: Antidepressant-like activity in Swiss albino mouse assessed as immobilization time at 10 mg/kg, ip after 30 mins by forced swim test; type: functional
# Mus musculus [11] = assay: Antidepressant-like activity in Swiss albino mouse assessed as immobilization time at 20 mg/kg, ip after 30 mins by forced swim test; type: functional, organism-based; parameters: dose 20 mg/kg
# Mus musculus [12] = assay: Antipsychotic activity in mouse assessed as reversal of apomorphine-induced mesh climbing response at 10 mg/kg, ip administered 10 mins prior to apomorphine challenge measured after 50 mins; type: functional, organism-based; parameters: dose 10 mg/kg
# Mus musculus [13] = assay: Antipsychotic activity in mouse assessed as reversal of apomorphine-induced mesh climbing response at 10 mg/kg, ip administered 10 mins prior to apomorphine challenge measured after 60 mins; type: functional, organism-based; parameters: dose 10 mg/kg
# Rattus norvegicus [14] = assay: Induction of 5HT1A receptor in rat assesses as lower lip retractions at 10 mg/kg, iv after 15 mins (reference value: 0.1 +/- 0.1 retractions); type: functional
# Rattus norvegicus [15] = assay: Induction of 5HT1A receptor in rat assesses as lower lip retractions at 20 mg/kg, iv after 15 mins (reference value: 0.1 +/- 0.1 retractions); type: functional
# Mus musculus [16] = organism: Mus musculus; conditions: Swiss albino, 5 mg/kg
# Description: Hypothermic effect in Swiss albino mouse assessed as change in body temperature at 5 mg/kg, ip measured after 30 mins
# Mus musculus [17] = organism: Mus musculus; conditions: Swiss albino, 10 mg/kg
# Description: Hypothermic effect in Swiss albino mouse assessed as change in body temperature at 10 mg/kg, ip measured after 30 mins
# Mus musculus [18] = organism: Mus musculus; conditions: Swiss albino, 20 mg/kg
# Description: Hypothermic effect in Swiss albino mouse assessed as change in body temperature at 20 mg/kg, ip measured after 30 mins
# Mus musculus [19] = organism: Mus musculus; conditions: Swiss albino, 5 mg/kg; remark: listed apart in the source
# Description: Hypothermic effect in Swiss albino mouse assessed as change in body temperature at 5 mg/kg, ip measured after 60 mins
# Mus musculus [20] = organism: Mus musculus; conditions: Swiss albino, 10 mg/kg; remark: listed apart in the source
# Description: Hypothermic effect in Swiss albino mouse assessed as change in body temperature at 10 mg/kg, ip measured after 60 mins
# Mus musculus [21] = organism: Mus musculus; conditions: Swiss albino, 20 mg/kg; remark: listed apart in the source
# Description: Hypothermic effect in Swiss albino mouse assessed as change in body temperature at 20 mg/kg, ip measured after 60 mins
# Mus musculus [22] = organism: Mus musculus; conditions: Swiss albino, 5 mg/kg; remark: listed apart in the source
# Description: Hypothermic effect in Swiss albino mouse assessed as change in body temperature at 5 mg/kg, ip measured after 90 mins
# Mus musculus [23] = organism: Mus musculus; conditions: Swiss albino, 10 mg/kg; remark: listed apart in the source
# Description: Hypothermic effect in Swiss albino mouse assessed as change in body temperature at 10 mg/kg, ip measured after 90 mins
# Mus musculus [24] = organism: Mus musculus; conditions: Swiss albino, 20 mg/kg; remark: listed apart in the source
# Description: Hypothermic effect in Swiss albino mouse assessed as change in body temperature at 20 mg/kg, ip measured after 90 mins
# Mus musculus [25] = organism: Mus musculus; conditions: Swiss albino, 5 mg/kg; remark: listed apart in the source
# Description: Hypothermic effect in Swiss albino mouse assessed as change in body temperature at 5 mg/kg, ip measured after 120 mins
# Mus musculus [26] = organism: Mus musculus; conditions: Swiss albino, 10 mg/kg; remark: listed apart in the source
# Description: Hypothermic effect in Swiss albino mouse assessed as change in body temperature at 10 mg/kg, ip measured after 120 mins
# Mus musculus [27] = organism: Mus musculus; conditions: Swiss albino, 20 mg/kg; remark: listed apart in the source
# Description: Hypothermic effect in Swiss albino mouse assessed as change in body temperature at 20 mg/kg, ip measured after 120 mins
# Mus musculus [28] = organism: Mus musculus; conditions: Swiss albino, 20 mg/kg; remark: listed apart in the source
# Description: Hypothermic effect in Swiss albino mouse assessed as change in body temperature at 20 mg/kg, ip measured after 30 mins in presence of 0.1 mg/kg, sc 5-HT1A antagonist WAY 100635
# Mus musculus [29] = organism: Mus musculus; conditions: Swiss albino, 20 mg/kg; remark: listed apart in the source
# Description: Hypothermic effect in Swiss albino mouse assessed as change in body temperature at 20 mg/kg, ip measured after 60 mins in presence of 0.1 mg/kg, sc 5-HT1A antagonist WAY 100635
compound,measurement,setting,value
"COc1cc(Cl)ccc1C(=O)N[C@H]1CC2CC[C@H](C1)N2Cc1ccco1 (single isomer, unassigned)",Ki,[1],2.1 µM
same,Ki,[2],0.682 µM
same,Ki,D(2) dopamine receptor,0.174 µM
same,Activity,Mus musculus [3],inactive
same,Activity,Mus musculus [4],40%
same,Activity,Mus musculus [5],40%
same,Activity,Mus musculus [6],45%
same,Activity,Mus musculus [7],Active
"COc1ccccc1C(=O)N[C@H]1CC2CC[C@H](C1)N2Cc1ccco1 (single isomer, unassigned)",Ki,[1],6.1 µM
same,Ki,[2],6 µM
same,Ki,D(2) dopamine receptor,1 µM
"COc1cccc(C(=O)N[C@H]2CC3CC[C@H](C2)N3CC2CCCO2)c1 (single isomer, unassigned)",Ki,[1],10.3 µM
same,Ki,[2],1.1 µM
same,Ki,D(2) dopamine receptor,> 100 µM
"COc1cc(N)c(Cl)cc1C(=O)N[C@H]1CC2CC[C@H](C1)N2Cc1ccco1 (single isomer, unassigned)",Activity,Rattus norvegicus [8],2.6
same,Activity,Rattus norvegicus [9],2.7
same,Activity,Mus musculus [10],inactive
same,Activity,Mus musculus [11],inactive
same,Ki,[1],2.5 µM
same,Ki,[2],0.0166 µM
same,Ki,D(2) dopamine receptor,0.0182 µM
same,Activity,Mus musculus [3],Active
same,Activity,Mus musculus [12],Active
same,Activity,Mus musculus [13],Active
same,Activity,Mus musculus [4],68%
same,Activity,Mus musculus [5],97%
same,Activity,Mus musculus [6],100%
same,Activity,Rattus norvegicus [14],0.2
same,Activity,Rattus norvegicus [15],0.1
same,deltaT,Mus musculus [16],0 °C
same,deltaT,Mus musculus [17],-0.3 °C
same,deltaT,Mus musculus [18],-1.8 °C
same,deltaT,Mus musculus [19],-0.3 °C
same,deltaT,Mus musculus [20],-0.2 °C
same,deltaT,Mus musculus [21],-1 °C
same,deltaT,Mus musculus [22],0.1 °C
same,deltaT,Mus musculus [23],-0.1 °C
same,deltaT,Mus musculus [24],-1 °C
same,deltaT,Mus musculus [25],0.1 °C
same,deltaT,Mus musculus [26],-0.1 °C
same,deltaT,Mus musculus [27],-0.9 °C
same,deltaT,Mus musculus [28],-1.3 °C
same,deltaT,Mus musculus [29],-0.8 °C
same,Activity,Mus musculus [7],Active
"COc1ccc(Cl)cc1C(=O)N[C@@H]1CC2CC[C@H](C1)N2CC1CCCO1 (single isomer, unassigned)",Ki,[1],4.6 µM
same,Ki,[2],0.12 µM
same,Ki,D(2) dopamine receptor,2.4 µM
"O=C(N[C@H]1CC2CC[C@H](C1)N2CC1CCCO1)c1ccccc1 (single isomer, unassigned)",Ki,[1],10.2 µM
same,Ki,[2],3.1 µM
same,Ki,D(2) dopamine receptor,> 100 µM
"COc1ccc(OC)c(C(=O)N[C@H]2CC3CC[C@H](C2)N3Cc2ccco2)c1 (single isomer, unassigned)",Ki,[1],9.6 µM
same,Ki,[2],1.1 µM
same,Ki,D(2) dopamine receptor,1.1 µM
"COc1cccc(C(=O)N[C@@H]2CC3CC[C@H](C2)N3Cc2cccnc2)c1OC (single isomer, unassigned)",Ki,[1],3.3 µM
same,Ki,[2],0.956 µM
same,Ki,D(2) dopamine receptor,0.0115 µM
"COc1ccc(C(=O)N[C@H]2CC3CC[C@H](C2)N3Cc2ccco2)c(OC)c1 (single isomer, unassigned)",Ki,[1],19 µM
same,Ki,[2],1.3 µM
same,Ki,D(2) dopamine receptor,0.652 µM
"COc1ccc(F)cc1C(=O)N[C@@H]1CC2CC[C@H](C1)N2CC1CCCO1 (single isomer, unassigned)",Ki,[1],10.1 µM
same,Ki,[2],1.1 µM
same,Ki,D(2) dopamine receptor,12.4 µM
"COc1cc(C(=O)N[C@H]2CC3CC[C@H](C2)N3Cc2ccco2)cc(OC)c1OC (single isomer, unassigned)",Ki,[1],2.9 µM
same,Ki,[2],1.1 µM
same,Ki,D(2) dopamine receptor,52.2 µM
COc1ccc(F)cc1C(=O)N[C@H]1C[C@H]2CC[C@@H](C1)N2Cc1ccco1 (stereo in doubt; 14b),Ki,[1],> 100 µM
same,Ki,[2],7 µM
same,Ki,D(2) dopamine receptor,44 µM
"COc1ccc(C(=O)N[C@H]2CC3CC[C@H](C2)N3Cc2ccco2)cc1OC (single isomer, unassigned)",Ki,[1],57.3 µM
same,Ki,[2],7.9 µM
same,Ki,D(2) dopamine receptor,68.8 µM
